{
  "source": "patent US20230295571A1",
  "about": "“COMPOSITIONS AND METHODS FOR STEM CELL CHONDROGENESIS” (Washington University, priority 2020, published 2023)",
  "key": {"hMSC pellets": {"system": "hMSC pellets", "assay": "Chondrogenesis of hMSC pellets with WNT inhibition (Saf-O, GAG/DNA)", "format": "cell-based, human", "excerpt": "hMSCs and culture. Discarded and deidentified waste tissue from the iliac crests of adult bone marrow transplant donors was collected in accordance with the institutional review board of Washington University in Saint Louis. Human bone marrow-derived MSCs (hMSCs) were isolated by their physical adherence to plastic culture vessels. Cells were expanded and maintained in an expansion medium consisting of DMEM-low glucose (Thermo Fisher Scientific, #11885092), 1 penicillin/streptomycin (P/S, Thermo Fisher Scientific, #15140-122), 10% lot-selected FBS (Atlanta Biologicals, #S11550), and 1 ng ml^−1 basic fibroblast growth factor (FGF) (R&D Systems, #233-FB). Three individual donors were used as biologic replicates in subsequent experiments.\nWNT-C59 and ML329 treatment for WNT and MITF inhibition. For WNT-C59 treatment for WNT inhibition during chondrogenesis, pellets were treated with either 10 ng ml^−1 TGF-β3 (control group) or a combination of 10 ng ml^−1 TGF-β3 and 1 μM WNT-C59 in a chondrogenic medium from d0 to d42 as appropriate. […]\nBiochemical analysis of cartilaginous matrix production. […] GAG content, as calculated based on the standard curve, was normalized to double-stranded DNA content to obtain the GAG/DNA ratio."}, "[1]": {"system": "hiPSC chondrogenic pellets", "assay": "scRNA-seq of hiPSC chondrogenic pellets with WNT inhibition", "format": "cell-based, human", "description": "On the day of collection for bulk RNA-seq experiments, 3-4 pellets per experimental group were pooled together and washed once with phosphate-buffered saline (PBS), snap-frozen in 300 μl of Buffer RL (Norgen Biotek), and stored at −80° C. until processing for RNA extraction. At harvesting time points for scRNA-seq experiments, 6-8 pellets per experimental group were pooled and digested with 0.04% Type II collagenase solution in DMEM/F12 for 1 h. Cells were washed once with PBS, resuspended in standard freezing medium, and stored in liquid nitrogen until needed.\nWNT-C59 and ML329 treatment for WNT and MITF inhibition. For WNT-C59 treatment for WNT inhibition during chondrogenesis, pellets were treated with either 10 ng ml^−1 TGF-β3 (control group) or a combination of 10 ng ml^−1 TGF-β3 and 1 μM WNT-C59 in a chondrogenic medium from d0 to d42 as appropriate. For WNT-C59 and ML329 treatment (ML, Axon Medchem, HY-101464) for WNT and MITF inhibition during chondrogenesis, pellets were treated with either 10 ng ml^−1 TGF-β3 (control group), a combination of 10 ng ml^−1 TGF-β3 and 1 μM ML, a combination of 10 ng ml^−1 TGF-β3 and 1 μM WNT-C59, or a combination of 10 ng ml^−1 TGF-β3, 1 μM ML and 1 μM WNT-C59 in chondrogenic medium from d0 to d42 as appropriate.\n10× chromium platform scRNA-seq. Cells were thawed at 37° C. and resuspended in PBS with 0.04% bovine serum albumin at a concentration of 2000 cells per μl. Cell suspensions were submitted to the GTAC sequencing core at Washington University in St. Louis for library preparation and sequencing. In brief, 10,000 cells per sample were loaded on a Chromium Controller (10× Genomics) for single capture. Libraries were prepared using Single Cell 3′ Library & Gel Bead Kit v2 (#120237 10× Genomics) following the manufacture's instruction. A single cell emulsion (Gel Bead-In-EMulsions, GEMs) is created by making barcoded cDNA unique to each individual emulsion. A recovery agent was added to break GEM and cDNA was then amplified. A library is produced via end repair, dA-tailing, adapter ligation, post-ligation cleanup with SPRIselect, and sample index PCR. The quality and concentration of the amplified cDNA were evaluated by Bioanalyzer (Agilent 2100) on a High Sensitivity DNA chip (Agilent, #5065-4401). The only cDNA with an average library size of 260-620 bp were used for sequencing. Sequencing was performed by IIlumina HiSeq2500 with the following read length: 26 bp for Read1, 8 bp for i7 Index, and 98 bp for Read2. We generally acquired ˜180 million reads per library (sample). A species mixing experiment (mouse adipose stem cells and human iPSCs, 1:1 mixture) was also performed prior to running on the actual sample to ensure good quality of single-cell capture (i.e., cell doublet rate<5%).\nPreprocessing of scRNA-seq data. Paired-end sequencing reads were processed by Cell Ranger (10× Genomics software, version 2.0.0). Reads were aligned to the GRCh38 (version 90) for genome annotation, demultiplexing, barcode filtering, and gene quantification. Cell Ranger also removes any barcode that has less than 10% of the 99th percentile of total unique molecular identifiers (UMI) counts per barcode as these barcodes are considered to be associated with empty droplets. After this quality control, gene barcode matrices for each sample were generated by counting the number of UMIs for a given gene (as a row) in the individual cell (as a column). For each sample, ˜1300-2500 cells were captured.\nUnsupervised clustering analysis and annotation. To assess the difference in the composition of cell populations, global unsupervised clustering analysis was performed for our scRNA-seq datasets. First, gene barcode matrices were input into the Seurat R package (version 2.4). Then, the low-quality cells with less than 200 or more than 7000 detected genes or if their mitochondrial gene content was more than 5% were removed. […]"}, "[2]": {"conditions": "trajectory vs TGF-β3-treated pellets"}},
  "data": [
    {"molecule": "Cc1cc(-c2ccc(CC(=O)Nc3ccc(-c4cccnc4)cc3)cc2)ccn1", "note": "[WNT-C59]", "values": [
      {"measurement": "GAG/DNA ratio of hMSC pellets", "setting": "hMSC pellets; donor 1 and donor 3, vs TGF-β3 alone", "value": "significantly increased"},
      {"measurement": "chondrogenesis of hMSC pellets", "setting": "hMSC pellets; hMSCs from 3 donors, WNT-C59 during pellet culture", "value": "increased"},
      {"measurement": "neural cells and melanocytes in pellets", "setting": "[1]; WNT-C59-treated pellets d7-d42", "value": "significantly decreased"},
      {"measurement": "percentage of BMP4-expressing cells", "setting": "[1]; d14, all clusters except ISG15/IFI6/MX1+ chondrocytes", "value": "decreased percentage"},
      {"measurement": "percentage of GDF5 and BMPR1B expressing cells", "setting": "[1]; d14, all clusters vs TGF-β3-treated", "value": "remarkably increased percentage"},
      {"measurement": "percentage of cells expressing BMPR2", "setting": "[1]; d14, several chondrocyte subpopulations", "value": "decreased"},
      {"measurement": "expression of most WNTs", "setting": "[1]; d14 and d28 pellets, particularly proliferative cells", "value": "decreased expression"},
      {"measurement": "FRZB expression in chondrocyte population", "setting": "[1]; d14 pellets", "value": "upregulated"},
      {"measurement": "ID2 (neurogenic marker) in proliferative cells", "setting": "[1]; d14 pellets", "value": "decreased"},
      {"measurement": "PRG4 in mesenchymal cells", "setting": "[1]; d14 pellets", "value": "increased"},
      {"measurement": "mesenchyme and chondrocytes content", "setting": "[1]; d14 pellets vs TGF-β3 only", "value": "more"},
      {"measurement": "IFI6 and ISG15 (mature-hypertrophic chondrocyte markers)", "setting": "[1]; d28 pellets", "value": "downregulated"},
      {"measurement": "expression of ACAN and COMP", "setting": "[1]; d28 pellets vs standard-treated", "value": "increased"},
      {"measurement": "chondrogenic markers", "setting": "[1]; [2]", "value": "enriched expression"},
      {"measurement": "neurogenic markers", "setting": "[1]; [2]", "value": "little, if any"},
      {"measurement": "ACAN expression in pseudotime", "setting": "[1]; vs TGF-β3 alone", "value": "earlier induction"},
      {"measurement": "COL2A1 and SOX9 expression in pseudotime", "setting": "[1]; vs TGF-β3 alone", "value": "higher levels"},
      {"measurement": "SOX2 expression in pseudotime", "setting": "[1]; vs TGF-β3 alone", "value": "earlier decrease"}
    ]}
  ]
}
